The values below come from patent US6433001B1, “1H-indole-3-glyoxylamide sPLA2 inhibitors” (Eli Lilly and Company, priority 1994, dated 2002).

In test [1] the target is T1, Human Secreted Phospholipase A2 (Homo sapiens, UniProt P14555).
T1 sequence (P14555 21-144): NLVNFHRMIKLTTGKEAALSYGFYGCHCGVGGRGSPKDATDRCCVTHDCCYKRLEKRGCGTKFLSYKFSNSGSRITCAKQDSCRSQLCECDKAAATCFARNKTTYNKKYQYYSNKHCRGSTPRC
The test can be described thus: chromogenic assay for inhibitors of recombinant human secreted phospholipase A2. The class given is biochemical. As to the method:
The following chromogenic assay procedure was used to identify and evaluate inhibitors of recombinant human secreted phospholipase A2. The assay described herein has been adapted for high volume screening using 96 well microtiter plates.
Adjust pH to 4.5 with acetic acid
DTNB—5,5′-dithiobis-2-nitrobenzoic acid
RACEMIC DIHEPTANOYL THIO—PC
racemic 1,2-bis(heptanoylthio)-1,2-dideoxy-sn-glycero-3-phosphorylcholine
TRITON X-100™ prepare at 6.249 mg/ml in reaction buffer to equal […].
A measured volume of racemic dipheptanoyl thio PC supplied in chloroform at a concentration of 100 mg/ml is taken to dryness and redissolved in 10 millimolar TRITON X-100™ nonionic detergent aqueous solution.
Reaction Buffer is added to the solution, then DTNB to give the Reaction Mixture.
The reaction mixture thus obtained contains 1 mM diheptanoly thio-PC substrate, 0.29 mm Triton X-100™ detergent, and 0.12 mm DTMB in a buffered aqueous solution at pH 7.5.
1. Add 0.2 ml reaction mixture to all wells;
2. Add 10 ul test compound (or solvent blank) to appropriate wells, mix 20 seconds;
3. Add 50 nanograms of sPLA2 (10 microliters) to appropriate wells;
4. Incubate plate at 40° C. for 30 minutes;
5. Read absorbance of wells at 405 nanometers with an automatic plate reader.
All compounds were tested in triplicate. […] Lack of color development at 405 nanometers evidenced inhibition. […] In all cases, % inhibition measured at 405 nanometers generated by enzyme reactions containing inhibitors relative to the uninhibited control reactions was determined. Each sample was titrated in triplicate and result values were averaged for plotting and calculation of IC50 values.

Test [2] addresses T1, Human Secreted Phospholipase A2. The test can be described thus: guinea pig lung pleural strip tissue test, sPLA2-induced contraction. The following applies: guinea pig lung pleural strips; compound added 30 min. prior to sPLA2 concentration-response curves; pA2 interpreted as apparent KB; read-out: Tissue test secreted PLA2 Apparent KB. The format is cell-based. The source says: Male Hartley strain guinea pigs (500-700 g) were killed by cervical dislocation and their heart and lungs removed intact and placed in aerated (95% O2:5% CO2) Krebs buffer. Dorsal pleural strips (4×1×25 mm) were dissected from intact parenchymal segments (8×4×25 mm) cut parallel to the outer edge of the lower lung lobes. Two adjacent pleural strips, obtained from a single lobe and representing a single tissue sample, were tied at either end and independently attached to a metal support rod. One rod was attached to a Grass force-displacement transducer (Model FTO3C, product of Grass Medical Instruments Co., Quincy, Mass., USA). […] All tissues were placed in 10 ml jacketed tissue baths maintained at 37° C. The tissue baths were continuously aerated and contained a modified Krebs solution of the following composition (millimolar) NaCl, 118.2; KCl, 4.6; CaCl2.2H2O, 2.5; MgSO4.7H2O, 1.2; NaHCO3, 24.8; KH2PO4, 1.0; and dextrose 10.0. Pleural strips from the opposite lobes of the lung were used for paired experiments. […] The tissues were allowed to equilibrate for 45 min. as the bath fluid was changed periodically.
Initially tissues were challenged 3 times with KCl (40 mM) to test tissue viability and to obtain a consistent response. After recording the maximal response to KCl, the tissues were washed and allowed to return to baseline before the next challenge. Cumulative concentration-response curves were obtained from pleural strips by increasing the agonist concentration (sPLA2) in the tissue bath by half-log10 increments while the previous concentration remained in contact with the tissues (Ref.1, supra.) Agonist concentration was increased after reaching the plateau of the contraction elicited by the preceding concentration. One concentration-response curve was obtained from each tissue. To minimize variability between tissues obtained from different animals, contractile responses were expressed as a percentage of the maximal response obtained with the final KCl challenge. When studying the effects of various drugs on the contractile effects of sPLA2, the compounds and their respective vehicles were added to the tissues 30 min. prior to star ting the sPLA2 concentration-response curves.
Data from different experiments were pooled and presented as a percentage of the maximal KCl responses (mean±S.E.). […] 163, (Ref.2) The model includes four parameters: the maximum tissue response which was assumed the same for each curve, the ED50 for the control curve, the steepness of the curves, and the pA2, the concentration of antagonist that requires a two-fold increase in agonist to achieve an equivalent response. […] 164 (Ref. 2).
To estimate the drug-induced suppression of the maximal responses, siPLA2 responses (10 ug/ml) were determined in the absence and presence of drug, and percent suppression was calculated for each pair of tissues.

[3] abbreviates: diheptanoyl thio-PC substrate, pH 7.5, 40° C. for 30 minutes, absorbance at 405 nanometers, read-out: Inhibition of human secreted PLA2 IC50 ± mean deviation (3-4 tests).

Counter-ions that a name gives are not always drawn. Like-named read-outs stand apart in the source and are kept apart here.

As usually defined, the IC50 is the concentration that gives 50% inhibition.

Turning to `Cc1c(C(=O)C(N)=O)c2c(OCC(=O)O)cccc2n1Cc1cccc(-c2ccccc2)c1` [Example 4, [[3-(2-Amino-1,2-dioxoethyl)-1-([1,1′-biphenyl]-3-ylmethyl)-2-methyl-1H-indol-4-yl]oxy]acetic Acid], the concentration for half-maximal inhibition (IC50) in test [1] is 0.00969 ± 0.00114 µM. `CCc1c(C(=O)C(N)=O)c2c(NCC(=O)O)cccc2n1Cc1ccccc1` [Example 17, [[3-(Aminooxoacetyl)-2-ethyl-1-(phenylmethyl)-1H-indol-4-yl]amino]acetic Acid]: in test [1] (setting [3]), the IC50 worked out at 1.15 ± 0.12 µM. Turning to `NC(=O)C(=O)c1c(C2CC2)n(Cc2ccccc2-c2ccccc2)c2cccc(OCC(=O)O)c12` [Example 14, [[3-(2-Amino-1,2-dioxoethyl)-1-([1,1′-biphenyl]-2-ylmethyl)-2-cyclopropyl-1H-indol-4-yl]oxy]acetic Acid], in test [1], the IC50 is 0.00557 ± 0.00289 µM. For the same compound, the Kb in test [2] is 0.075 ± 0.009 µM. Regarding `NC(=O)C(=O)c1cn(Cc2ccccc2)c2ccc(OCCCC(=O)O)cc12` [Example 16, 4-[[3-(2-Amino-1,2-dioxoethyl)-1-(phenylmethyl)-H-indol-5-yl]oxy]butanoic Acid], the “activity in inhibiting sPLA2 (in words)” value in test [1] (comment on Table I) was “much less active”. Moreover, in test [1] (setting [3]), the IC50 was 62 µM.

As to `CCc1c(C(=O)C(N)=O)c2c(OCC(=O)O)cccc2n1Cc1cccc(Cl)c1` [10 (Na salt), [[3-(2-amino-1,2-dioxoethyl)1-[(3-chlorophenyl)methyl]-2-ethyl-1H-indol-4-yl]oxy]acetic acid, sodium salt], in test [2], the Kb came to 0.11 ± 0.01 µM. In the case of `Cc1c(C(=O)C(N)=O)c2c(OCC(=O)O)cccc2n1Cc1ccccc1` [Example 1, [[3-(2-Amino-1,2-dioxoethyl)-2-methyl-1-(phenylmethyl)-1H-indol-4-yl]oxy]acetic Acid], the IC50 in test [1] was 0.0107 ± 0.00551 µM. Moreover, the Kb in test [2] came to 0.143 ± 0.067 µM. On to `CCc1c(C(=O)C(N)=O)c2c(OCC(=O)O)cccc2n1Cc1cccc(Cl)c1` [Example 10, [[3-(2-Amino-1,2-dioxoethyl)-1-[(3-chlorophenyl)methyl]-2-ethyl-1H-indol-4-yl]oxy]acetic Acid], for which the 50% inhibitory concentration (IC50) in test [1] turned out to be 0.00667 ± 0.00289 µM. Still for that read-out and setting: under `Cc1c(C(=O)C(N)=O)c2c(OCC(=O)O)cccc2n1Cc1ccccc1-c1ccccc1` [Example 3, [[3-(2-Amino-1,2-dioxoethyl)-1-([1,1′-biphenyl]-2-ylmethyl)-2-methyl-1H-indol-4-yl]oxy]acetic Acid] stands 0.00533 ± 0.00115 µM.

On to `NC(=O)C(=O)c1c(C2CC2)n(Cc2ccccc2)c2cccc(OCC(=O)O)c12` [Example 13, [[3-(2-Amino-1,2-dioxoethyl)-2-cyclopropyl-1-(phenylmethyl)-1H-indol-4-yl]oxy]acetic Acid], for which the IC50 in test [1] turned out to be 0.0276 ± 0.0131 µM. As to `Cc1c(C(=O)C(N)=O)c2c(OCC(=O)O)cccc2n1Cc1cccc2ccccc12` [Example 8, [[3-(2-Amino-1,2-dioxoethyl)-2-methyl-1-[(1-naphthalenyl)methyl]-1H-indol-4-yl]oxy]acetic Acid], in test [1], the IC50 was found to be 0.0328 ± 0.00704 µM. For the compound `CCCc1c(C(=O)C(N)=O)c2c(OCC(=O)O)cccc2n1Cc1ccccc1-c1ccccc1` [Example 12, [[3-(2-amino-1,2-dioxoethyl)-1-([1,1′-biphenyl]-2-ylmethyl)-2-propyl-1H-indol-4-yl]oxy]acetic Acid], the half-inhibitory concentration (IC50) in test [1] (setting [3]) came to 0.0822 ± 0.018 µM. In the case of `Cc1c(C(=O)C(N)=O)c2c(OCC(=O)O)cccc2n1Cc1ccccc1-c1ccccc1` [3 (Na salt), [[3-(2-amino-1,2-dioxoethyl)-1-([1,1′-biphenyl]-2-ylmethyl)-2-methyl-1H-indol-4-yl]oxy]acetic acid, sodium salt], the Kb in test [2] worked out at 0.0676 ± 0.0118 µM. As to `CCc1c(C(=O)C(N)=O)c2cc(OCCCC(=O)O)ccc2n1Cc1ccccc1` [Example 15], the concentration for half-maximal inhibition (IC50) in test [1] (setting [3]) worked out at 0.21 ± 0.06 µM. On the same count and under the same terms, the same measure for `Cc1c(C(=O)C(N)=O)c2c(OCC(=O)O)cccc2n1Cc1c(Cl)cccc1Cl` [Example 6, [[3-(2-Amino-1,2-dioxoethyl)-1-[(2,6-dichlorophenyl)methyl]-2-methyl-1H-indol-4-yl]oxy]acetic Acid]: 0.006 ± 0.001 µM. Take `CCc1c(C(=O)C(N)=O)c2c(OCC(=O)O)cccc2n1Cc1ccccc1-c1ccccc1` [Example 11, [[3-(2-Amino-1,2-dioxoethyl)-1-([1,1′-biphenyl]-2-ylmethyl)-2-ethyl-1H-indol-4-yl]oxy]acetic Acid]: the 50% inhibitory concentration (IC50) in test [1] is 0.00433 ± 0.00231 µM. Moreover, the Kb in test [2] was 0.057 ± 0.011 µM. Regarding `Cc1c(C(=O)C(N)=O)c2c(OC(C)C(=O)O)cccc2n1Cc1ccccc1` (racemic) [Example 2, dl-2-[[3-(2-Amino-1,2-dioxoethyl)-2-methyl-1-(phenylmethyl)-1H-indol-4-yl]oxy]propanoic Acid], the IC50 in test [1] (setting [3]) amounted to 0.009 ± 0.00173 µM. Take `Cc1c(C(=O)C(N)=O)c2c(OCC(=O)O)cccc2n1Cc1ccc(-c2ccccc2)cc1` [Example 5, [[3-(2-Amino-1,2-dioxoethyl)-1-([1,1′-biphenyl]-4-ylmethyl)-2-methyl-1H-indol-4-yl]oxy]acetic Acid]: the IC50 in test [1] turned out to be 0.049 ± 0.0115 µM. The same measure, in the same setting: under `Cc1c(C(=O)C(N)=O)c2c(OCC(=O)O)cccc2n1Cc1ccc(F)cc1` [Example 7, [[3-(2-Amino-1,2-dioxoethyl)-1-[4(-fluorophenyl)methyl]-2-methyl-1H-indol-4-yl]oxy]acetic Acid] stands 0.006 ± 0.001 µM.
